Laboratory results published in patent publication US10501479B2, “Benzenesulfonyl-asymmetric ureas and medical uses thereof” (HELSINN HEALTHCARE SA, priority 2016, dated 2019).
Values joined by “and” are separate entries in the source; they are usually repeats but may differ in a detail not shown here. Equal entries are not always repeated. Where two headings read alike, the source gives them in different places.

Columns and labels:
[1] = Metabolic stability in human liver microsomes; assay type: in vitro ADME
Procedure, shortened: (§1)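 Parent compound was measured by LC-MS/MS at 0, 10, 30 and 90 min after NADPH-initiated incubation with liver microsomes at 37 °C. Buffer was 100 mM potassium phosphate, pH 7.4; time-zero concentration was taken before NADPH addition.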

[2] = Animal PK study in mouse via i.v., p.o. and s.c. administration; assay type: in vivo
Procedure: All treated animals received a single dose of a test compound (either through i.v., p.o., or s.c. administration) according to the regimen shown in the following table:
For oral dose groups, appropriate amount of test compound was prepared in the following formulation carrier: 1% DMSO (increase to 5% maximum if necessary) and 0.5% Methycellulose. Each mouse or rat received by oral gavage 10 mL/kg of the formulation mixture.
For i.v. and s.c dose groups, appropriate amount of test compound was dissolved in 1% DMSO (increase to 5% maximum if necessary), 99% of 20% HP-β-Cyclodextron (w/v). The pH was adjusted accordingly. Each mouse or rat received 5 mL/kg of the formulation mixture. i.v. dose was administered by tail vein injection. Subcutaneous injection was administered over the shoulders, into the loose skin over the neck. At designated time points (e.g., i.v. and s.c.: 0.083, 0.25, 0.5, 1, 2, 4, 8 and 24 hrs; p.o.: 0.25, 0.5, 1, 2, 4, 8 and 24 hrs), systemic samples of blood (50 μL in mouse or 500 μL in rat) were collected by puncture (submandibular vein in mouse or jugular vein in rat) into vacutainers containing EDTA-K2 as anti-coagulant. The blood was centrifuged at 6000 rpm for 8 min at 4° C. to obtain plasma. All plasma samples were stored at −20° C. All plasma samples were added to acetonitrile for protein precipitation and quantitatively analyzed by LC-MS/MS.

[3] = Metabolic stability in mouse liver microsomes; assay type: in vitro ADME
Procedure, shortened: as §1

[4] = target: T1, recombinant human ghrelin receptor (HEK293/GRLN) (Homo sapiens, UniProt Q92847); experiment: Ghrelin inverse agonist potency (EC50) with IP-1 (IP-One HTRF) assay; assay type: cell-based; conditions: IP-1 assay
T1 construct: expressed in transfected cells
T1 sequence (Q92847 whole entry): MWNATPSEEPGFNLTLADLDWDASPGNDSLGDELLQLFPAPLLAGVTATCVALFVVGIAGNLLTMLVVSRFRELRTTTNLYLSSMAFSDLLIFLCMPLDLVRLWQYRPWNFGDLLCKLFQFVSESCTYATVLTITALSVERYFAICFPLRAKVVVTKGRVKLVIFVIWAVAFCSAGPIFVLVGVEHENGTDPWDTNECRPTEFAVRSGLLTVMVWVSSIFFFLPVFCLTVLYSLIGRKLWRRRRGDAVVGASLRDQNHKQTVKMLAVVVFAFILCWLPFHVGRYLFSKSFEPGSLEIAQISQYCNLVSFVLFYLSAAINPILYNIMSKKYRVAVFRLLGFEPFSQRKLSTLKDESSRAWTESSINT
Procedure, shortened: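 HEK293/GRLN cells were seeded 18-22 hours before the test, then exposed to compound in stimulation buffer for 1 hour at 37° C, 5% CO2. IP-1 was detected by IP-One HTRF (IP1-d2 plus Tb-cryptate, 1 hour RT), reading 620 and 665 nm; the inverse agonist EC50 was derived from this.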

[5] = Animal PK study in rat via i.v., p.o. and s.c. administration; assay type: in vivo; conditions: for half-life: plasma, ip, read-out: PK T1/2 i.p.; for half-life / PK CL i.p. / PK Vd i.p.: rat (R), i.p.
[6] = target: T2, GHSR-1a (HEK293/GHSR1a cell line) (Homo sapiens, UniProt Q92847); experiment: Ghrelin antagonist potency (IC50) with calcium FLIPR assay, ghrelin 10 nM; assay type: cell-based
T2 construct: expressed in transfected cells; host or cells: HEK293/GHSR1a cell line
T2 sequence (Q92847 whole entry): as above
Procedure, shortened: (§2)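 Dye preload 30-60 min, RT or 37° C; compound in DMSO. Agonist mode: compound at t=20 sec, Ca2+ read 2 min. Antagonist mode: compound + ghrelin 10 nM at t=20 sec, 2 min read. EC50/IC50 from dose-response curves.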

[7] = Metabolic stability in rat liver microsomes; assay type: in vitro ADME
Procedure: Metabolic Stability Study
The metabolic stability of compounds in human, dog, rat and mouse liver microsomes was performed according the experimental conditions reported below:
• a) Prepare the following 5 stock solutions: • 1. Test compound stock solutions: dilute 10 mM solution of dextromethorphan (Dtr) in DMSO, 10 mM solution of diphenhydramine (DPA) in DMSO, 10 mM solution of omeprazole (Ome) in DMSO, 10 mM solution of verapamil (Ver) in DMSO, and 10 mM of an inverse agonist compound in DMSO to 0.25 mM solution each with acetonitrile/water (70/30). • 2. Buffer: 100 mM potassium phosphate Buffer (PBS) at pH 7.4 • 3. Liver microsomes (20 mg/ml): Thaw in 37° C. water bath quickly • 4. 2000 μL: of NADPH regenerating system (1.3 mM). Place this system on ice before use:
• 5. […] The test compound concentration in the wells, measured by LC-MS/MS, represents the concentration at time=0. • f) To determine the test compound concentration when t≠0, pre-incubate the NADPH regenerating system and the incubation plate containing the remaining 320 μL of incubation mixture (microsomes protein and test compound) for 5 minutes at 37° C. • g) Start the incubation reaction by adding 80 μL NADPH regenerating system to each well containing the remaining 320 μL incubation mixture. • h) After 10 min., 30 min., and 90 min. of incubation at 37° C., transfer 100 μL of the incubation mixture (microsomes protein, test compound, and NADPH) into the wells of a stop plate pre-filled with 300 μL of the cold quench solution. Shake well. • i) Centrifuge the stop plate at 5000×g for 10 minutes. Collect and dilute the supernatant 3 times with distilled water. Sample and analyze the test compound concentration for all the wells by LC-MS/MS. Animal PK Studies via i.v. (intravenous), p.o. (orally) and s.c. (subcutaneous) administrations

[8] = target: T2, GHSR-1a (HEK293/GHSR1a cell line); experiment: Ghrelin agonist potency (EC50) with calcium FLIPR assay; assay type: cell-based
Procedure, shortened: as §2

[9] = inverse agonist potency, read-out: EC50 (Activity)
[10] = ghrelin antagonist potency, read-out: IC50 (Activity)
[11] = ghrelin inverse agonist potency, read-out: Activity EC50
[12] = ghrelin agonist potency, read-out: Activity EC50/EMax
[13] = ghrelin antagonist potency, read-out: Activity IC50

| Structure (SMILES) | Metabolic Stability Study H = human [1] | PK F [2] | Metabolic Stability Study M = mouse [3] | EC50 [4, 9] | Metabolic Stability Study R = rat [7] | EC50 [4, 11] [nM] | EC50 [8, 12] [µM] | IC50 [6, 13] [nM] | further results |
| --- | --- | --- | --- | --- | --- | --- | --- | --- | --- |
| C[C@H](NC(=O)Nc1ccc(S(=O)(=O)Cc2ccc3c(c2)CCNC3)cc1)c1cccc(Cl)c1Cl [H1027, (S)-1-(1-(2,3-dichlorophenyl)ethyl)-3-(4-(((1,2,3,4-tetrahydroisoquinolin-6-yl)methyl)sulfonyl)phenyl)urea] | H = <10 M = <10 R = not reported D = not reported μL/min/mg | F = 0.72 (M); % | H = <10 M = <10 R = not reported D = not reported μL/min/mg | 1.62 nM | – | – | – | – | PK CLiv ([2]; i.v.): 0.71 L/h/kg; PK Vdiv ([2]; i.v.): 1.64 L/kg; PK t1/2iv ([2]; i.v.): 1.61 (M); h; PK CLpo ([2]; p.o.): 85.67 L/h/kg; PK Vdpo ([2]; p.o.): 345 (M); L/Kg; PK t1/2po ([2]; p.o.): 2.79 (M); h; PK F ([5]; rat): 57.14 (R) %; PK CLiv ([5]; rat, i.v.): 12.34 L/h/kg; PK Vdiv ([5]; rat, i.v.): 168.2 L/kg; PK t1/2iv ([5]; rat, i.v.): 10.2 (R) h; PK CLpo ([5]; rat, p.o.): 24.98 L/h/kg; PK Vdpo ([5]; rat, p.o.): 80.4 (R) L/Kg; PK t1/2po ([5]; rat, p.o.): 2.21 (R) h; IC50 [6, 10]: 2.5 nM |
| C[C@H](NC(=O)Nc1ccc(S(=O)(=O)Cc2ccc3[nH]ccc3c2)cc1)c1cccc(Cl)c1Cl [H1142, (S)-1-(4-(((1H-indol-5-yl)methyl)sulfonyl)phenyl)-3-(1-(2,3-dichlorophenyl)ethyl)urea] | 114.9 µL/min/mg | – | 151.4 µL/min/mg | 440 nM | 209.6 µL/min/mg | – | – | – | – |
| CC(NC(=O)Nc1ccc(S(=O)(=O)Cc2ccc3c(c2)CNC3)cc1)c1cccc2ccccc12.Cl (stereo not drawn) [H1149, 1-(4-((isoindolin-5-ylmethyl)sulfonyl)phenyl)-3-(1-(naphthalen-1-yl)ethyl)urea] | 21.1 µL/min/mg | 0.86% | 24.3 µL/min/mg | 1.69 nM and 2.41 nM | – | – | – | – | PK CLiv ([2]; i.v.): 0.98 L/h/kg; PK Vdiv ([2]; i.v.): 1.22 L/kg; PK t1/2iv ([2]; i.v.): 0.87 h; PK CLpo ([2]; p.o.): 107.5 L/h/kg; PK Vdpo ([2]; p.o.): 272 L/kg; PK t1/2po ([2]; p.o.): 1.75 h; IC50 [6, 10]: 4.8 nM |
| CC(NC(=O)Nc1ccc(S(=O)(=O)Cc2ccc3c(c2)CN(CC2CC2)C3)cc1)c1ccccc1 (stereo not drawn) [H1220, 1-(4-(((2-(cyclopropylmethyl)isoindolin-5-yl)methyl)sulfonyl)phenyl)-3-(1-phenylethyl)urea] | 183.8 µL/min/mg | 4.71% | 248 µL/min/mg | 30.4 nM | – | – | – | – | PK CLiv ([2]; i.v.): 3.05 L/h/kg; PK Vdiv ([2]; i.v.): 3.08 L/kg; PK t1/2iv ([2]; i.v.): 0.7 h; PK CLpo ([2]; p.o.): 61.6 L/h/kg; PK Vdpo ([2]; p.o.): 78.7 L/kg; PK t1/2po ([2]; p.o.): 0.89 h; IC50 [6, 10]: 3.61 nM |
| CC(NC(=O)Nc1ccc(S(=O)(=O)Cc2ccc3c(c2)CN(C)C3)cc1O)c1ccccc1 (stereo not drawn) [H1448, 1-(2-hydroxy-4-(((2-methylisoindolin-5-yl)methyl)sulfonyl)phenyl)-3-(1-phenylethyl)urea] | 28 µL/min/mg | 1.90% | 20.8 µL/min/mg | – | – | – | – | – | PK CL p.o. ([2]; p.o.): 254.6 L/h/kg; PK Vd p.o. ([2]; p.o.): 242.2 L/kg; Vd ([2]; plasma, iv, 5 mg/kg): 9.26 L/kg; clearance ([2]; plasma, iv, 5 mg/kg, i.v., read-out: PK CL i.v.): 80.5 mL/min/kg; half-life ([2]; plasma, iv, 5 mg/kg, i.v., read-out: PK t1/2 i.v.): 79.8 min; half-life ([2]; plasma, po, 10 mg/kg, p.o., read-out: PK t1/2 p.o.): 39.6 min; EC50 ([4]; HEK293/GRLN, read-out: Activity EC50 (ghrelin inverse agonist potency)): 3.3 nM; EC50 ([8]; HEK293/GHSR1a, read-out: Activity EC50/EMax: EC50 (ghrelin agonist potency)): > 30 µM; IC50 ([6]; HEK293/GHSR1a, ghrelin 10 nM, read-out: Activity IC50 (ghrelin antagonist potency)): 30.3 nM |
| COc1cc(NC(=O)NC(C)c2ccccc2)ccc1S(=O)(=O)Cc1ccc2c(c1)CNC2 (stereo not drawn) [H1461, 1-(4-((isoindolin-5-ylmethyl)sulfonyl)-3-methoxyphenyl)-3-(1-phenylethyl)urea] | 22.0 µL/min/mg | – | < 10 µL/min/mg | – | – | 3.5 | > 30 | 7.9 | half-life [5]: 157 min; PK CL i.p. [5]: 2.30 L/h/kg; PK Vd i.p. [5]: 8.64 L/kg |
| CC(c1ccccc1)N(O)C(=O)Nc1ccc(S(=O)(=O)Cc2ccc3c(c2)CNC3)cc1 (stereo not drawn) [H1472, 1-hydroxy-3-(4-((isoindolin-5-ylmethyl)sulfonyl)phenyl)-1-(1-phenylethyl)urea] | – | – | – | – | – | 3.25 | > 30 | 6 | half-life [5]: 146 min; PK CL i.p. [5]: 2.19 L/h/kg; PK Vd i.p. [5]: 7.71 L/kg |
| CC(NC(=O)Nc1ccc(S(=O)(=O)Cc2ccc3c(c2)CCNC3)cc1C(=O)O)c1ccccc1 (stereo not drawn) [H1541, 2-(3-(1-phenylethyl)ureido)-5-(((1,2,3,4-tetrahydroisoquinolin-6-yl)methyl)sulfonyl)benzoic acid] | H = <10 R = <10 μL/min/mg | – | – | – | H = <10 R = <10 μL/min/mg | 9.7 | > 30 | 72.3 | – |
| CC(NC(=O)Nc1ccc(S(=O)(=O)Cc2ccc3c(c2)CCNC3)cc1C(=O)O)c1cccc(Cl)c1Cl (stereo not drawn) [H1542, 2-(3-(1-(2,3-dichlorophenyl)ethyl)ureido)-5-(((1,2,3,4-tetrahydroisoquinolin-6-yl)methyl)sulfonyl)benzoic acid] | < 10 µL/min/mg | – | – | – | 13.3 µL/min/mg | 1.9 | > 30 | 1.69 | – |
| COc1cc(S(=O)(=O)Cc2ccc3c(c2)C(F)CNC3)ccc1NC(=O)N[C@H](C)c1cccc(Cl)c1Cl (stereo partly drawn) [H1543, 1-((R)-1-(2,3-dichlorophenyl)ethyl)-3-(4-(((4-fluoro-1,2,3,4-tetrahydroisoquinolin-6-yl)methyl)sulfonyl)-2-methoxyphenyl)urea] | 46.8 µL/min/mg | – | – | – | 204.6 µL/min/mg | 12.6 | > 30 | 15.9 | – |
| COc1cc(S(=O)(=O)Cc2ccc3c(c2)C(F)CN(C)C3)ccc1NC(=O)N[C@H](C)c1cccc(Cl)c1Cl (stereo partly drawn) [H1544, 1-((R)-1-(2,3-dichlorophenyl)ethyl)-3-(4-(((4-fluoro-2-methyl-1,2,3,4-tetrahydroisoquinolin-6-yl)methyl)sulfonyl)-2-methoxyphenyl)urea] | 323.3 µL/min/mg | – | – | – | 427.2 µL/min/mg | 9.7 | > 30 | 40.4 | – |
